From patent US9375000B2, “Pesticidal arylpyrrolidines” (Bayer Intellectual Property GmbH, priority 2011, dated 2016)

What was measured:
Assay type in all cases: in vivo
[1] = tested on: Two-Spotted Spider Mite (Tetranychus urticae); assay: Two-spotted spider mite (Tetranychus urticae) spray test on kidney bean; conditions: after 7 days
Experimental: (§1) Unless not mentioned otherwise, the test solutions were prepared as follows:
(§2) Solvent: 3 parts by weight Dimethylformamide
(§3) Emulsifier: 1 part by weight Polyoxyethylene alkyl phenyl ether
(§4) In order to make an appropriate formulation of an active compound, 1 part by weight of the active compound is mixed with the above mentioned amount of solvent and emulsifier and the mixture is diluted with water to a prescribed concentration. Ammonium salt or ammonium salt and penetration enhancer in a dosage of 1000 ppm are added to the desired concentration if necessary.
50 to 100 adult mites of Tetranychus urticae were inoculated to leaves of kidney bean at two-leaf stage planted in a pot of 6 cm in diameter. After one day, test solution at the appropriate concentration was sprayed thereon in a sufficient amount using a spray gun. After the spraying, the plant pot was placed inside a greenhouse, and after 7 days, the acaricidal activity was calculated. An acaricidal activity of 100% means that all mites were killed, whereas an acaricidal activity of 0% means that no mite was killed.

[2] = tested on: Cucurbit Leaf Beetle (Aulacophora femoralis); assay: Cucurbit leaf beetle (Aulacophora femoralis) cucumber leaf dip test; conditions: after 7 days; for pest or weed control at 20 ppm: Aulacophora, foliar, 168 h, read-out: insecticidal activity
Experimental: as §1, §2, §3, §4
Leaves of cucumber were immersed in the test solution at the appropriate concentration, and the leaves were dried in air. The leaves were then put in a plastic cup containing sterilized black soil and five Aulacophora femoralis at second instar larvae were released in the cup. The cups were placed in a temperature-controlled chamber at 25° C. After 7 days, the number of dead larvae was counted, and thus the insecticidal activity was calculated. An insecticidal activity of 100% means that all larvae were killed, whereas an insecticidal activity of 0% means that no larva was killed.

[3] = tested on: Larvae of Spodoptera litura; assay: Larvae of Spodoptera litura, method using artificial feeds; conditions: artificial feed, after 7 days
Experimental: as §1, §2, §3, §4
[A Method Using Artificial Feeds (Trade Name: Insecta LFM, Manufactured by Nosan Corporation)]
Powdery artificial feeds (2.3 g) were added to a plastic cup (diameter: 7.5 cm, height: 4 cm) to achieve a certain thickness. Water-diluted liquid (5 ml) of the active compound prepared above having predetermined concentration was evenly poured thereto and allowed to stand until the feeds were solidified. Five of the 3rd-instar larvae of Spodoptera litura were released in respective cups, and covered. The cups were put in a temperature controlled room at 25° C. and humidity of 50 to 60%, and the number of dead larvae after 7 days was determined to calculate the pesticidal ratio. 100% pesticidal ratio means death of all the larvae, while 0% pesticidal ratio means no dead larvae.

[4] = active compound concentration 100 ppm
[5] = active compound concentration 20 ppm
[6] = active compound concentration 4 ppm

SMILES	insecticidal activity [2, 5] [%]	insecticidal activity (pesticidal ratio) [3, 5] [%]	insecticidal activity (pesticidal ratio) [3, 6] [%]	other results
CC(C)(C)OC(=O)NCc1ccc(N2CCC(c3cc(Cl)c(Cl)c(Cl)c3)(C(F)(F)F)C2O)cc1Cl (mixture of isomers) [A1-68]	–	–	–	acaricidal activity [1, 4]: 100%
CC(C)(C)OC(=O)NCc1ccc(N2CCC(c3cc(C(F)(F)F)cc(C(F)(F)F)c3)(C(F)(F)F)C2O)cc1C(F)(F)F (mixture of isomers) [A1-72]	–	–	–	insecticidal activity [2, 4]: 100%; insecticidal activity (pesticidal ratio) [3, 4]: 100%
CCC(=O)NCc1ccc(N2CCC(c3cc(Cl)cc(Cl)c3)(C(F)(F)F)C2O)cc1CC (mixture of isomers) [A1-85]	–	–	–	acaricidal activity [1, 5]: 90%
CC(=O)NCc1ccc(N2CCC(c3cc(C(F)(F)F)cc(C(F)(F)F)c3)(C(F)(F)F)C2O)cc1C (mixture of isomers) [A1-183]	100	100	–	–
CCC(=O)NCc1ccc(N2CCC(c3cc(Br)cc(Br)c3)(C(F)(F)F)C2O)nc1C(F)(F)F (mixture of isomers) [A3-178]	100	100	–	–
O=C(NCc1ccc(N2CCC(c3cc(Br)cc(Br)c3)(C(F)(F)F)C2O)nc1C(F)(F)F)C1CC1 (mixture of isomers) [A3-181]	100	100	–	–
CC(=O)NCc1ccc(N2CCC(c3cccc(C(F)(F)F)c3)(C(F)(F)F)C2O)nc1C(F)(F)F (racemic) [A3-221]	100	–	–	–
CC(=O)NCc1ccc(N2CCC(c3cc(Cl)cc(Cl)c3)(C(F)(F)F)C2O)cc1C(F)(F)F (stereo not drawn) [A1-34]	100	100	–	–
CC(C)(C)OC(=O)NCc1ccc(N2CCC(c3cc(C(F)(F)F)cc(C(F)(F)F)c3)(C(F)(F)F)C2O)cc1Cl (stereo not drawn) [A1-69, tert-butyl (4-{3-[3,5-bis(trifluoromethyl)phenyl]-2-hydroxy-3-(trifluoro-methyl)pyrrolidin-1-yl}-2-chlorobenzyl)carbamate]	–	–	–	pest or weed control at 20 ppm [2, 5]: 100%
CCC(=O)NCc1ccc(N2CCC(c3cc(F)cc(Cl)c3)(C(F)(F)F)C2O)cc1C(F)(F)F (stereo not drawn) [A1-239]	–	–	–	acaricidal activity [1, 5]: 100%
CCC(=O)NCc1ccc(N2CCC(c3cc(Cl)cc(Cl)c3)(C(F)(F)F)C2O)cc1 (stereo not drawn) [A1-373]	100	100	–	–
CCC(=O)NCc1ccc(N2CCC(c3cc(C(F)(F)F)cc(C(F)(F)F)c3)(C(F)(F)F)C2O)cc1 (stereo not drawn) [A1-395]	100	100	–	–
CC(=O)NCc1cc(F)c(N2CCC(c3cc(Cl)c(Cl)c(Cl)c3)(C(F)(F)F)C2O)cc1F (stereo not drawn) [A1-453]	–	–	80	–
O=C(NCc1cc(F)c(N2CCC(c3cc(Cl)c(Cl)c(Cl)c3)(C(F)(F)F)C2O)cc1F)C1CC1 (stereo not drawn) [A1-457]	–	–	100	insecticidal activity [2, 6]: 100%
O=C(NCc1cc(F)c(N2CCC(c3cc(Cl)c(Cl)c(Cl)c3)(C(F)(F)F)C2O)cc1Cl)C1CC1 (stereo not drawn) [A1-481]	–	–	100	insecticidal activity [2, 6]: 100%
Cc1c(CNC(=O)C2CC2)ccc(N2CCC(c3cc(Cl)c(Cl)c(Cl)c3)(C(F)(F)F)C2O)c1F (stereo not drawn) [A1-493]	–	–	100	insecticidal activity [2, 6]: 100%
CCC(=O)NCc1ccc(N2CCC(c3cc(Cl)cc(Cl)c3)(C(F)(F)F)C2O)nc1C(F)(F)F (stereo not drawn) [A3-2]	100	100	–	–
CC(=O)NCc1ccc(N2CCC(c3cc(C(F)(F)F)cc(C(F)(F)F)c3)(C(F)(F)F)C2O)nc1C (stereo not drawn) [A3-122]	–	100	100	–
Cc1nc(N2CCC(c3cc(C(F)(F)F)cc(C(F)(F)F)c3)(C(F)(F)F)C2O)ccc1CNC(=O)C1CC1 (stereo not drawn) [A3-126]	100	100	–	–

SMILES	insecticidal activity [2, 5] [%]	insecticidal activity (pesticidal ratio) [3, 5] [%]	insecticidal activity (pesticidal ratio) [3, 6] [%]	other results
Cc1nc(N2CCC(c3cc(C(F)(F)F)cc(C(F)(F)F)c3)(C(F)(F)F)C2O)ccc1CNC(=O)CS(C)(=O)=O (stereo not drawn) [A3-132]	–	100	100	–
CC(=O)NCc1ccc(N2CCC(c3cc(C(F)(F)F)cc(C(F)(F)F)c3)(C(F)(F)F)C2O)nc1Br (stereo not drawn) [A3-155]	100	100	100	insecticidal activity [2, 6]: 100%
CCC(=O)NCc1ccc(N2CCC(c3cc(C(F)(F)F)cc(C(F)(F)F)c3)(C(F)(F)F)C2O)nc1Br (stereo not drawn) [A3-156]	100	100	–	–
CCC(=O)NCc1ccc(N2CCC(c3cc(Cl)c(F)c(Cl)c3F)(C(F)(F)F)C2O)nc1Br (stereo not drawn) [A3-323]	–	–	100	insecticidal activity [2, 6]: 100%
O=C(NCc1cc(F)c(N2CCC(c3cc(Cl)c(Cl)c(Cl)c3)(C(F)(F)F)C2O)nc1Cl)C1CC1 (stereo not drawn) [A3-370]	–	–	100	insecticidal activity [2, 6]: 100%
CC(=O)NCc1cc(F)c(N2CCC(c3cc(C(F)(F)F)cc(C(F)(F)F)c3)(C(F)(F)F)C2O)nc1Cl (stereo not drawn) [A3-377]	–	–	100	insecticidal activity [2, 6]: 100%
C=C(C)N(Cc1ccc(N2CCC(c3cc(Cl)c(Cl)c(Cl)c3)(C(F)(F)F)C2O)nc1C(F)(F)F)C(=O)C1CC1 (stereo not drawn) [A3-424]	–	–	100	insecticidal activity [2, 6]: 100%
CN(C)CC(=O)NCc1cnc(N2CCC(c3cc(Cl)cc(Cl)c3)(C(F)(F)F)C2O)nc1C(F)(F)F (stereo not drawn) [A4-201]	–	–	–	insecticidal activity (pesticidal ratio) [3, 4]: 100%
O=C(NCc1cnc(N2CCC(c3cc(Cl)cc(Cl)c3)(C(F)(F)F)C2O)nc1C(F)(F)F)C1CCCN1 (stereo not drawn) [A4-202]	–	–	–	insecticidal activity (pesticidal ratio) [3, 4]: 100%
CC(C)(C)OC(=O)N1CCCC1C(=O)NCc1cnc(N2CCC(c3cc(Cl)cc(Cl)c3)(C(F)(F)F)C2O)nc1C(F)(F)F (stereo not drawn) [A4-203]	–	–	–	insecticidal activity (pesticidal ratio) [3, 4]: 80%
O=C(NCc1cnc(N2CCC(c3cc(C(F)(F)F)cc(C(F)(F)F)c3)(C(F)(F)F)C2O)nc1Cl)C1CC1 (stereo not drawn) [A4-252]	–	–	100	insecticidal activity [2, 6]: 100%
N#CCC(=O)NCc1cnc(N2CCC(c3cc(Cl)cc(Cl)c3)(C(F)(F)F)C2O)nc1C(F)(F)F (stereo not drawn) [A4-435]	–	–	–	acaricidal activity [1, 5]: 100%
CCC(=O)NCc1ccc(N2CC(c3cc(C(F)(F)F)cc(C(F)(F)F)c3)(C(F)(F)F)CC2O)nc1C(F)(F)F (stereo not drawn) [A′3-24, N-{[6-{4-[3,5-bis(trifluoromethyl)phenyl]-2-hydroxy-4-(trifluoromethyl)pyrrolidin-1-yl}-2-(trifluoromethyl)pyridin-3-yl]methyl}propanamide]	–	–	–	pest or weed control at 20 ppm [2, 5]: 100%; pest or weed control at 20 ppm ([3]; Spodoptera litura, 168 h, active compound concentration 20 ppm, read-out: insecticidal activity (pesticidal ratio)): 100%
CCC(=O)NCc1ccc(N2CCC(c3cc(C(F)(F)F)cc(C(F)(F)F)c3)(C(F)(F)F)C2=O)cc1 (stereo not drawn) [B1-96]	100	100	–	–
CCC(=O)NCc1ccc(N2CC(c3cc(Cl)c(Cl)c(Cl)c3)(C(F)(F)F)CC2=O)nc1C (stereo not drawn) [C1-74]	–	100	–	–
CCC(=O)NCc1ccc(N2CC(c3cc(Cl)cc(Cl)c3)(C(F)(F)F)CC2=O)nc1C(F)(F)F (stereo not drawn) [C3-2]	–	100	–	–
O=C(NCc1ccc(N2CC(c3cc(Cl)cc(Cl)c3)(C(F)(F)F)CC2=O)nc1C(F)(F)F)C1CC1 (stereo not drawn) [C3-5]	–	100	–	–
CCCC(=O)NCc1ccc(N2CCC(c3cc(Cl)c(Cl)c(Cl)c3)(C(F)(F)F)C2O)cc1C(F)(F)F (stereo not drawn) [a1-47]	–	100	–	–
N#Cc1ccc(N2CCC(c3cc(Cl)c(F)c(Cl)c3F)(C(F)(F)F)C2O)cc1C(F)(F)F (stereo not drawn) [a1-48, 4-[3-(3,5-dichloro-2,4-difluorophenyl)-2-hydroxy-3-(trifluoromethyl)-pyrrolidin-1-yl]-2-(trifluoromethyl)benzonitrile]	–	–	–	pest or weed control at 20 ppm [2, 5]: 100%
